# How the values were obtained:
# Test in all cases: relative viability (nuclei count vs DMSO), 5 days (fraction); higher = more cells survive
# [1] = tested on: NCI-H1648
# Summary of the method: (§1)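 Lung cancer cell lines in 1536-well plates were dosed by pin tool the day after seeding, either with one drug alone or with a fixed anchor-drug dose plus five library-drug doses (not always all listed) in √10 steps. After 5 days, cells were fixed and their nuclei stained in one step (final 0.05% Triton X-100, 1% formaldehyde, 1 ug/ml Hoechst), then counted on 4× images. Relative viability is the nuclei count in treated wells divided by that in vehicle wells. Values are medians of duplicate plates.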
# [2] = tested on: NCI-H2342
# Summary of the method: as §1
# [3] = tested on: NCI-H522
# Summary of the method: as §1
# [4] = tested on: A549
# Summary of the method: as §1
# [5] = tested on: SW 900
# Summary of the method: as §1
# [6] = tested on: IA-LM
# Summary of the method: as §1
# [7] = tested on: NCI-H1703
# Summary of the method: as §1
# [8] = tested on: NCI-H1563
# Summary of the method: as §1
# [9] = tested on: Calu-6
# Summary of the method: as §1
# [10] = tested on: EBC-1
# Summary of the method: as §1
# [11] = tested on: NCI-H1299
# Summary of the method: as §1
compound,measurement,setting,value
O=C(O)CCCCC(CCSCc1ccccc1)SCc1ccccc1 (stereo not given) [CPI-613] + Nc1ncn([C@H]2C[C@H](O)[C@@H](CO)O2)c(=O)n1 [Decitabine] (partner 2 µM),relative viability,[1]; first compound 5 µM,0.568
same,relative viability,[1]; first compound 15.81 µM,0.409
same,relative viability,[1]; first compound 50 µM,0.57
same,relative viability,[1]; first compound 158.11 µM,0.4
same,relative viability,[1]; first compound 500 µM,0.172
same,relative viability,[2]; first compound 5 µM,0.669
same,relative viability,[2]; first compound 15.81 µM,0.656
same,relative viability,[2]; first compound 50 µM,0.838
same,relative viability,[2]; first compound 158.11 µM,0.78
same,relative viability,[2]; first compound 500 µM,0.779
same,relative viability,[3]; first compound 5 µM,0.678
same,relative viability,[3]; first compound 15.81 µM,0.585
same,relative viability,[3]; first compound 50 µM,0.697
same,relative viability,[3]; first compound 158.11 µM,0.627
same,relative viability,[3]; first compound 500 µM,0.3
same,relative viability,[4]; first compound 5 µM,0.284
same,relative viability,[4]; first compound 15.81 µM,0.195
same,relative viability,[4]; first compound 50 µM,0.269
same,relative viability,[4]; first compound 158.11 µM,0.259
same,relative viability,[4]; first compound 500 µM,0.161
same,relative viability,[5]; first compound 5 µM,0.458
same,relative viability,[5]; first compound 50 µM,0.429
same,relative viability,[5]; first compound 158.11 µM,0.332
same,relative viability,[5]; first compound 500 µM,0.0668
Cc1cnc(-c2cnc(NCCNc3ccc(C#N)cn3)nc2-c2ccc(Cl)cc2Cl)[nH]1 + O=C(CCCCCCC(=O)Nc1ccccc1)NO [Vorinostat] (partner 1 µM),relative viability,[1]; first compound 0.08 µM,0.718
same,relative viability,[1]; first compound 0.253 µM,0.516
same,relative viability,[1]; first compound 0.8 µM,0.241
same,relative viability,[1]; first compound 2.53 µM,0.327
same,relative viability,[2]; first compound 0.08 µM,0.753
same,relative viability,[2]; first compound 0.253 µM,0.685
same,relative viability,[2]; first compound 0.8 µM,0.838
same,relative viability,[2]; first compound 2.53 µM,0.648
same,relative viability,[3]; first compound 0.08 µM,1.01
same,relative viability,[3]; first compound 0.253 µM,0.947
same,relative viability,[3]; first compound 0.8 µM,0.958
same,relative viability,[3]; first compound 2.53 µM,0.842
same,relative viability,[6]; first compound 0.08 µM,1.16
same,relative viability,[6]; first compound 0.8 µM,0.973
same,relative viability,[6]; first compound 2.53 µM,0.888
same,relative viability,[5]; first compound 0.08 µM,0.381
same,relative viability,[5]; first compound 0.253 µM,0.49
same,relative viability,[5]; first compound 0.8 µM,0.519
same,relative viability,[5]; first compound 2.53 µM,0.472
O=C(O)CCCCC(CCSCc1ccccc1)SCc1ccccc1 (stereo not given) [CPI-613] + NC(=O)Nc1cc(-c2cccc(F)c2)sc1C(=O)N[C@H]1CCCNC1 [AZD7762] (partner 0.2 µM),relative viability,[1]; first compound 5 µM,0.622
same,relative viability,[1]; first compound 15.81 µM,0.701
same,relative viability,[1]; first compound 50 µM,0.645
same,relative viability,[1]; first compound 158.11 µM,0.626
same,relative viability,[1]; first compound 500 µM,0.665
same,relative viability,[2]; first compound 5 µM,0.489
same,relative viability,[2]; first compound 15.81 µM,0.454
same,relative viability,[2]; first compound 50 µM,0.437
same,relative viability,[2]; first compound 158.11 µM,0.522
same,relative viability,[2]; first compound 500 µM,0.576
same,relative viability,[7]; first compound 5 µM,0.133
same,relative viability,[7]; first compound 15.81 µM,0.12
same,relative viability,[7]; first compound 50 µM,0.134
same,relative viability,[7]; first compound 158.11 µM,0.118
same,relative viability,[7]; first compound 500 µM,0.12
same,relative viability,[3]; first compound 5 µM,0.899
same,relative viability,[3]; first compound 15.81 µM,0.887
same,relative viability,[3]; first compound 50 µM,0.953
same,relative viability,[3]; first compound 158.11 µM,0.631
same,relative viability,[3]; first compound 500 µM,0.563
same,relative viability,[5]; first compound 5 µM,0.685
same,relative viability,[5]; first compound 50 µM,0.692
same,relative viability,[5]; first compound 158.11 µM,0.273
same,relative viability,[5]; first compound 500 µM,0.0039
O=C(O)CCCCC(CCSCc1ccccc1)SCc1ccccc1 (stereo not given) [CPI-613] + Nc1nc2[nH]cc(CCc3ccc(C(=O)N[C@@H](CCC(=O)O)C(=O)O)cc3)c2c(=O)[nH]1 [Pemetrexed] (partner 0.2 µM),relative viability,[8]; first compound 5 µM,0.732
same,relative viability,[8]; first compound 15.81 µM,0.713
same,relative viability,[8]; first compound 50 µM,0.727
same,relative viability,[8]; first compound 158.11 µM,0.631
same,relative viability,[8]; first compound 500 µM,0.394
same,relative viability,[1]; first compound 5 µM,0.639
same,relative viability,[1]; first compound 15.81 µM,0.623
same,relative viability,[1]; first compound 50 µM,0.823
same,relative viability,[1]; first compound 158.11 µM,0.527
same,relative viability,[1]; first compound 500 µM,0.139
same,relative viability,[2]; first compound 5 µM,0.743
same,relative viability,[2]; first compound 15.81 µM,0.761
same,relative viability,[2]; first compound 50 µM,0.804
same,relative viability,[2]; first compound 158.11 µM,0.744
same,relative viability,[2]; first compound 500 µM,0.785
same,relative viability,[3]; first compound 5 µM,1.04
same,relative viability,[3]; first compound 15.81 µM,1.06
same,relative viability,[3]; first compound 50 µM,1.3
same,relative viability,[3]; first compound 158.11 µM,0.857
same,relative viability,[3]; first compound 500 µM,0.473
same,relative viability,[5]; first compound 5 µM,0.451
same,relative viability,[5]; first compound 50 µM,0.47
same,relative viability,[5]; first compound 158.11 µM,0.372
same,relative viability,[5]; first compound 500 µM,0.0088
Cc1cnc(-c2cnc(NCCNc3ccc(C#N)cn3)nc2-c2ccc(Cl)cc2Cl)[nH]1 + Nc1nc2[nH]cc(CCc3ccc(C(=O)N[C@@H](CCC(=O)O)C(=O)O)cc3)c2c(=O)[nH]1 [Pemetrexed] (partner 0.2 µM),relative viability,[8]; first compound 0.08 µM,0.746
same,relative viability,[8]; first compound 0.253 µM,0.805
same,relative viability,[8]; first compound 0.8 µM,0.768
same,relative viability,[8]; first compound 2.53 µM,0.722
same,relative viability,[1]; first compound 0.08 µM,0.545
same,relative viability,[1]; first compound 0.253 µM,0.723
same,relative viability,[1]; first compound 0.8 µM,0.703
same,relative viability,[1]; first compound 2.53 µM,0.653
same,relative viability,[2]; first compound 0.08 µM,0.823
same,relative viability,[2]; first compound 0.253 µM,0.633
same,relative viability,[2]; first compound 0.8 µM,0.721
same,relative viability,[2]; first compound 2.53 µM,0.736
same,relative viability,[3]; first compound 0.08 µM,1.08
same,relative viability,[3]; first compound 0.253 µM,1.03
same,relative viability,[3]; first compound 0.8 µM,0.97
same,relative viability,[3]; first compound 2.53 µM,1.07
same,relative viability,[5]; first compound 0.08 µM,0.501
same,relative viability,[5]; first compound 0.253 µM,0.487
same,relative viability,[5]; first compound 0.8 µM,0.478
same,relative viability,[5]; first compound 2.53 µM,0.438
Cc1cnc(-c2cnc(NCCNc3ccc(C#N)cn3)nc2-c2ccc(Cl)cc2Cl)[nH]1 + O=C(c1cc(Cc2n[nH]c(=O)c3ccccc23)ccc1F)N1CCN(C(=O)C2CC2)CC1 [Olaparib] (partner 8 µM),relative viability,[9]; first compound 0.08 µM,0.532
same,relative viability,[9]; first compound 0.253 µM,0.547
same,relative viability,[9]; first compound 2.53 µM,0.468
same,relative viability,[10]; first compound 0.08 µM,0.619
same,relative viability,[10]; first compound 0.253 µM,0.608
same,relative viability,[10]; first compound 0.8 µM,0.673
same,relative viability,[10]; first compound 2.53 µM,0.9
same,relative viability,[11]; first compound 0.08 µM,0.953
same,relative viability,[11]; first compound 0.253 µM,0.957
same,relative viability,[11]; first compound 0.8 µM,0.968
same,relative viability,[11]; first compound 2.53 µM,0.856
same,relative viability,[1]; first compound 0.08 µM,0.723
same,relative viability,[1]; first compound 0.253 µM,0.761
same,relative viability,[1]; first compound 0.8 µM,1.2
same,relative viability,[1]; first compound 2.53 µM,0.865
same,relative viability,[2]; first compound 0.08 µM,0.438
same,relative viability,[2]; first compound 0.253 µM,0.387
same,relative viability,[2]; first compound 0.8 µM,0.43
same,relative viability,[2]; first compound 2.53 µM,0.439
same,relative viability,[7]; first compound 0.08 µM,0.48
same,relative viability,[7]; first compound 0.253 µM,0.378
same,relative viability,[7]; first compound 0.8 µM,0.448
same,relative viability,[7]; first compound 2.53 µM,0.486
same,relative viability,[3]; first compound 0.08 µM,0.641
same,relative viability,[3]; first compound 0.253 µM,0.668
same,relative viability,[3]; first compound 0.8 µM,0.681
same,relative viability,[3]; first compound 2.53 µM,0.643
same,relative viability,[6]; first compound 0.08 µM,0.77
same,relative viability,[6]; first compound 0.253 µM,0.766
same,relative viability,[6]; first compound 0.8 µM,0.87
same,relative viability,[6]; first compound 2.53 µM,0.709
same,relative viability,[4]; first compound 0.08 µM,0.233
same,relative viability,[4]; first compound 0.253 µM,0.264
same,relative viability,[4]; first compound 0.8 µM,0.288
same,relative viability,[4]; first compound 2.53 µM,0.3
same,relative viability,[5]; first compound 0.08 µM,0.827
same,relative viability,[5]; first compound 0.253 µM,0.913
same,relative viability,[5]; first compound 0.8 µM,0.848
same,relative viability,[5]; first compound 2.53 µM,0.561

# Source: the supplement of paper PMC10307832
